The source of these data is patent publication US12102631B2, “Quinolylnitrones for the treatment and prevention of a cerebral stroke or ischaemia” (ISQUAEMIA BIOTECH, S.L., priority 2018, dated 2024).

A short description of assay [1]: Interaction with the stable radical DPPH. It is filed as biochemical. The following applies: tested at 100 μM; reducing activity. As for the experimental part: Interaction of the nitrone with the Stable Radical 1,1-diphenyl-picrylhydrazyl (DPPH) To a solution of DPPH in absolute ethanol the appropriate volume of the compounds (0.1 mM final concentrations) dissolved in DMSO was added. The absorbance was recorded at 517 nm after 20 and 60 min at room temperature (Table 1).
3.1. Antioxidant activity of QNs using radical DPPH. […] This purple colour generally disappears in the presence of an antioxidant due to the reduction of the DPPH radical by single electron transfer (SET) from the antioxidant converted it to colourless/bleached product. […] In this assay, we measured the initial absorbance of DPPH and the absorbance once the potential antioxidant was added. The antioxidant activity was expressed as the percentage of reducing activity.
(DPPH is a stable violet radical that fades when it is reduced.)

The test system of the next assay is tMCAO in C57BL/6 mice. Particulars: 40 mg/kg; 48 h after treatment; earlier report of the group; cited from earlier work.
Assay [2] deals with global cerebral ischemia in Wistar rats. Kind of assay: Neurological deficit score after transient global cerebral ischemia (four-vessel occlusion). Format: in vivo. Particulars: 5 days of reperfusion, vehicle 3.3±0.21. As for the experimental part:
(§1) Animal model of global cerebral ischemia, experimental design and administration of nitrones. Transient forebrain ischemia was induced in adult male Wistar rats (10-12 weeks, Charles River) by the standard four-vessel occlusion model (4V0) previously described.^44,56 Briefly, both vertebral arteries were irreversibly occluded by electrocoagulation under anesthesia with a mixture of atropine, ketamine and diazepam (0.25, 62.5, and 5 mg/kg, respectively) delivered by intraperitoneal injection. After 24 h, ischemia was induced by carotid occlusion with atraumatic clips for 15 min and then clips were removed from the carotid arteries to allow reperfusion. Body temperature of 37° C. was maintained. The animals were studied after 5 days of reperfusion (R5 d). We performed a power analysis (http://www.biomath.info/power/ttest.htm) to determine the sample size. We chose the significant level at 0.05, the power set at 0.8 (80%), and a ratio of control/treated group of 2:1, and the sample size obtained was 10 subjects per control group and <6 subjects per treated group. […]
Animals were subjected to 15 min of cerebral ischemia, treated with vehicle or QN 23 at the onset of reperfusion period, and studied after 5 days of reperfusion (R5 d). We evaluated the neurological deficit score (NDS) to assess the effect of QN 23 following global ischemia-reperfusion in R5 d animals. […]

Assay [3] in a line: Inhibition of linoleic acid peroxidation (AAPH, ILPO). Format: biochemical. The following applies: tested at 100 μM. The procedure:
Inhibition of Linoleic Acid Peroxidation.^32 For initiating the free radical, 2,2′-azobis(2-amidinopropane) dihydrochloride (AAPH) is used. The final solution in the UV cuvette consisted of ten microliters of the 16 mM linoleate sodium dispersion 0.93 mL of 0.05 M phosphate buffer, pH 7.4, thermostatted at 37° C. 50 μL of 40 mM AAPH solution was added as a free radical initiator at 37° C. under air and 10 μL of the tested compounds. The oxidation of linoleic acid sodium salt results a conjugated diene hydroperoxide. The reaction is monitored at 234 nm (Table 1).
3.3. Anti-lipid peroxidation activity of QNs. The water-soluble azo compound 2,2′-azobis(2-amidinopropane) dihydrochloride (AAPH) has been extensively used as a clean and controllable source of thermally produced alkyl peroxyl free radicals through spontaneous thermal decomposition. […] In the AAPH assay to determine the inhibition of the lipid peroxidation (ILPO), the highly reactive alkylperoxyl radicals are intercepted mainly by a hydrogen atom transfer from the antioxidant. As shown, QN23 presented limited value, where QNs 19, 22 and 24 presented very high values (Table 3).

For assay [4], the system named is global cerebral ischemia in Wistar rats. Kind of assay: Neuronal death by Fluoro-Jade B staining after global cerebral ischemia. Format: in vivo. Particulars: R5 d. The procedure: as §1, with “group. A total of 26 ischemic animals were used for the study of nitrone 23 efficacy. Here 6 animals were treated with 1.5 mg/kg of nitrone 23, or 40 mg/kg of compound 2, and 14 animals were included in control (vehicle) group, two of which died after 2 days. The treatments were performed with allocated concealment, assigning a random order to each vehicle or treated animal by computer-generated randomization program.” for “group.”
Neuronal death evaluation. Neuronal death was evaluated by Fluoro-Jade-B staining. Brain cryosections (10 μm thick) from ischemic animals that underwent reperfusion for 5 days were used after fixation to detect neuronal death by Fluoro-Jade-B staining,^44 and visualized by fluorescence microscopy. Labeled (dead) neuronal cells (in green) were counted as in TUNEL assay (see below). Data from different animals of each experimental group were independently analyzed by two observers, and treatment information was blindly performed throughout the study. […]

The test system is the same in assay [5]. Kind of assay: Neuronal apoptosis by TUNEL assay after global cerebral ischemia. It is filed as in vivo. The following applies: R5 d. The procedure:
as §1, with “group. A total of 26 ischemic animals were used for the study of nitrone 23 efficacy. Here 6 animals were treated with 1.5 mg/kg of nitrone 23, or 40 mg/kg of compound 2, and 14 animals were included in control (vehicle) group, two of which died after 2 days. The treatments were performed with allocated concealment, assigning a random order to each vehicle or treated animal by computer-generated randomization program. Ischemic animals were treated with nitrone 23 diluted in 10% ethanol in saline as vehicle by intraperitoneal injection when the carotid arteries were unclamped for reperfusion.” for “group.”
TUNEL assay. Apoptotic neurons within brain sections were detected using the Terminal deoxynucleotidyl transferase-mediated dUTP Nick-End Labeling (TUNEL) assay (Promega). […]
The hippocampal CA1 subfield and cerebral and lateral cortex fields from a given section were analyzed with fluorescence microscopy (40× objective) to count the number of apoptotic nuclei (green). […]

[6] abbreviates: 1.5 mg/kg i.p., compared with vehicle.

In the case of `CC(C)(C)/[N+]([O-])=C/c1ccc(S(=O)(=O)O)cc1S(=O)(=O)O` [Compound 2, sodium (Z)-4-((tert-butyloxidoazanylidene)methyl)benzene-1,3-disulfonate, reference compound], the “DPPH (%)” value in assay [1] is “no”. Also, the “improvement of grip strength” value in the assay with tMCAO in C57BL/6 mice is given as 11.8%. Moreover, the “neurological deficit score (NDS)” value in assay [2] (40 mg/kg) was 2.5±0.28. Further, the “ILPO (%) / AAPH (%)” value in assay [3] is on record as “no”. Besides, the “effect on neuronal death, CA1 and cortical regions (in words)” value in assay [4] (40 mg/kg) is given as “did not produce a significant effect”. Also, the “effect on neuronal apoptosis (in words)” value in assay [5] (40 mg/kg) is “induced a decrease of neuronal apoptosis, although it was not significant”.

In the case of `CC(C)(C)/[N+]([O-])=C/c1cc2ccccc2nc1Cl` [Compound 18, (Z)—N-t-Butyl-1-(2-chloroquinolin-3-yl)methanimine oxide], the “DPPH (%)” value in assay [1] stood at 7%. For the same compound, the “ILPO (%) / AAPH (%)” value in assay [3] was “no”.

For `CC(C)(C)/[N+]([O-])=C/c1cc2ccccc2[nH]c1=O` [Compound 19, (Z)—N-tert-Butyl-1-(2-oxo-1,2-dihydroquinolin-3-yl)methanimine oxide], the “DPPH (%)” value in assay [1] was “no”. Also, the “ILPO (%) / AAPH (%)” value in assay [3] stood at 100%.

In the case of `COc1ccc2nc(Cl)c(/C=[N+](/C)[O-])cc2c1` [Compound 22, (Z)-1-(2-Chloro-6-methoxyquinolin-3-yl)-N-methylmethanimine oxide], the “DPPH (%)” value in assay [1] is given as “no”. The “ILPO (%) / AAPH (%)” value in assay [3] stood at 100%.

Turning to `COc1ccc2nc(Cl)c(/C=[N+](\[O-])C(C)(C)C)cc2c1` [Compound 23, (Z)—N-tert-Butyl-1-(2-chloro-6-methoxyquinolin-3-yl)methanimine oxide], the “DPPH (%)” value in assay [1] came out at 4%. For the same compound, the “neurological deficit score (NDS)” value in assay [2] (1.5 mg/kg i.p. at onset of reperfusion) is recorded as 2.0±0.44. For the same compound, the “ILPO (%) / AAPH (%)” value in assay [3] was determined as 22%. Besides, in assay [4] (setting [6]), the “decrease of neuronal death, CA1 region” value was 33% and the “decrease of neuronal death, cortical region” value came to 90%. In assay [5] (1.5 mg/kg), the “decrease of neuronal apoptosis, CA1 region” value was found to be 39% and the “decrease of neuronal apoptosis, cerebral cortex” value amounted to 84%.

In the case of `COc1ccc2nc(Cl)c(/C=[N+](\[O-])Cc3ccccc3)cc2c1` [Compound 24, (Z)—N-Benzyl-1-(2-chloro-6-methoxyquinolin-3-yl)methanimine oxide], the “DPPH (%)” value in assay [1] is recorded as 3%. For the same compound, the “ILPO (%) / AAPH (%)” value in assay [3] was 100%.

Consider `COc1ccc2nc(Cl)c(C=O)cc2c1` [Compound 32, 2-chloro-6-methoxyquinoline-3-carbaldehyde, reference compound], for which the “DPPH (%)” value in assay [1] is given as 1%. Further, the “ILPO (%) / AAPH (%)” value in assay [3] stood at 25%.
